From article PMC4591828, “Bacterial Rotary Export ATPases Are Allosterically Regulated by the Nucleotide Second Messenger Cyclic-di-GMP” (The Journal of Biological Chemistry, 2015)

Experiments:
FliIHis [1] = tested on: T1, FliIHis; conditions: no cdG; 2 mM MgCl2, 10 mM KCl, pH 8.0
T1 construct: gene fliI

FliIΔ1–18 [2] = tested on: T2, FliIΔ1–18; conditions: no cdG; 2 mM MgCl2, 10 mM KCl, pH 8.0
T2 construct: gene fliI

FliIΔ1–18 [3] = tested on: T3, FliIΔ1–18; assay type: biochemical; conditions: ATP substrate, 2 mM MgCl2, pH 8.0; allosteric
T3 construct: gene fliI; N-terminal truncation lacking first 18 residues, N-terminal His6 tag (pETNdeM-11), expressed in E. coli

HrcNHis = target: T4, HrcNHis (Pseudomonas syringae group genomosp. 3, UniProt Q887B5); test: pyruvate kinase/lactate dehydrogenase-linked ATPase assay; assay type: biochemical
T4 construct: gene sctN; full-length, N-terminal His6 tag (pETNdeM-11), expressed in E. coli
T4 sequence (Q887B5 whole entry): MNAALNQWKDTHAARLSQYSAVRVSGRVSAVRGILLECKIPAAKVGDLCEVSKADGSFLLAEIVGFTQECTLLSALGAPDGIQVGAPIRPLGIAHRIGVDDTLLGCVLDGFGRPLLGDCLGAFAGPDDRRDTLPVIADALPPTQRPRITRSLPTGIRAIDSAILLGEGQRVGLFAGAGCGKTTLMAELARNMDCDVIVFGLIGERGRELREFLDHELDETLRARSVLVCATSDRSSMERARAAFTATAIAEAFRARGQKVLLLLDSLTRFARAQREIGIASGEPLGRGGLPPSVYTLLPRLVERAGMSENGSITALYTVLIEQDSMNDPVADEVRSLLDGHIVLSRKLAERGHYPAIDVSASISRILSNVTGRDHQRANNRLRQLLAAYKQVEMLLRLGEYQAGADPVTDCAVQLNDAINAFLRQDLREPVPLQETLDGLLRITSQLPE

FliIHis [4] = target: T1, FliIHis; test: as above; assay type: biochemical, Pseudomonas fluorescens; conditions: 1 mM ATP, 2 mM MgCl2, pH 8.0; allosteric

SMILES	Km (FliIHis [1]) [µM]	Km (FliIΔ1–18 [2]) [µM]	IC50 (FliIΔ1–18 [3]) [µM]	IC50 (HrcNHis) [µM]	IC50 (FliIHis [4]) [µM]
Nc1ncnc2c1ncn2[C@@H]1O[C@H](COP(=O)(O)OP(=O)(O)OP(=O)(O)O)[C@@H](O)[C@H]1O [ATP]	0.48 ± 0.03	0.45 ± 0.04	–	–	–
Nc1nc2c(ncn2[C@@H]2O[C@@H]3COP(=O)(O)O[C@H]4[C@@H](O)[C@H](n5cnc6c(=O)[nH]c(N)nc65)O[C@@H]4COP(=O)(O)O[C@H]3[C@H]2O)c(=O)[nH]1 [cdG]	–	–	48.8 ± 0.159	25.1 ± 1.14	36.7 ± 1.13
